# Like-named read-outs stand apart in the source and are kept apart here.
# Experiments:
# Type in all cases: in vivo
# Culex pipiens = experiment: Biological activity on Culex pipiens larvae (Diptera); settings: 24 h, Table 5, read-out: Activity (mortality class), Culex P. (larvae)
# Description: (4) Biological activity on Culex pipiens (Diptera)
# Into glasses containing an aqueous dispersion of the products under examination (see Tables 4 and 5) there were introduced mosquito larvae of third and fourth age.
# The mortality percentage of the larvae (glasses containing pure water=0) was determined after 24 hours from treatment.
# Pieris brassicae = experiment: Biological activity on Pieris brassicae (Lepidoptera); settings: 48 h; for mortality at 0.1 %: 1%o
# Description: (2) Biological activity on Pieris brassicae (Lepidotera)
# Cut-off cauliflower leaves were sprinkled with an aqueous dispersion of the products under examination (see TABLE 5).
# After drying, the leaves were infested with 5-day old larvae. The percentage of mortality of the larvae (untreated leaves=0) was determined after 48 hours from treatment.
# Blatta orientalis = experiment: Biological activity on Blatta orientalis (Ortoptera); settings: Blatta orientalis, 48 h, read-out: Activity (mortality class), Blatta O.; for mortality at 1 g/m2: 1 g/m^2
# Description: (10) Biological activity on Blatta orientalis (Ortoptera)
# The bottom and walls of glass crystallizers were treated uniformly with an acetonic solution of the products under examination (see Tables 4 and 5). After evaporation of the solvent, into each crystallizer were introduced ten 80-100 days old neanides. The crystallizers were then closed with a metal net cover. After 24 hours from the start of the treatment, the insects were transferred to similar untreated crystallizers, and there were appropriately nourished in conventional manner.
# The percentage of mortality (untreated insects=0) was determined after 48 hours from the start of the treatment.
# Tetranychus urticae = experiment: Biological activity on adults of Tetranychus urticae (Acari); settings: 24 h, Table 5, read-out: Activity (mortality class), Tetranychus U. (adults); for mortality at 0.001 %: 0.01%o; for mortality at 0.1 %: 1%o
# Description: (5) Biological activity on adults of Tetranychus urticae (Acari)
# Discs of bean leaves were infested with adult acari and then sprinkled with an aqueous dispersion of the products under examination (see Tables 4 and 5).
# The mortality percentage was determined after 24 hours from treatment (untreated leaf discs, mortality=0).
# Spodoptera littoralis = experiment: Biological activity on Spodoptera littoralis (Lepidoptera); settings: 48 h, Table 5, read-out: Activity (mortality class), Spodoptera L.; for mortality at 0.1 %: 1%o; for mortality at 0.005 %: 0.05%o
# Description: (7) Biological activity on Spodoptera littoralis (Lepidoptera)
# Cut tobacco leaves were sprinkled with an aqueous dispersion of the products under examination (see Tables 4 and 5).
# After drying, the leaves were infested with 5-day old larvae.
# The percentage of mortality of the larvae was determined after 48 hours from treatment (untreated leaves, mortality=0).
# [1] = tested on: Leptinotarsa decemlineata; experiment: Biological activity on Leptinotarsa decemlineata (Coleoptera); settings: 48 h, Table 5, read-out: Activity (mortality class), Leptinotarsa D.; for mortality at 0.005 %: 0.05%o; for mortality at 0.1 %: 1%o
# Description: (3) Biological activity on Leptinotarsa decemlineata (Coleoptera)
# Small potato plants grown in pots were infested with 4-day old larvae, and were then sprinkled with an aqueous dispersion of the products under examination (see Tables 4 and 5).
# The mortality percentage (untreated small plants=0) was determined after 48 hours from treatment.
# [2] = 0.01%o, Table 5, read-out: Activity (mortality class), Pieris B.
# [3] = Table 5, read-out: Activity (mortality class), Pieris B.
Structure (SMILES),mortality at 2 ppm (Culex pipiens),mortality at 0.001 % (Pieris brassicae; [2]),mortality at 0.1 % (Pieris brassicae; [3]),mortality at 1 g/m2 (Blatta orientalis; Table 5),mortality at 0.001 % (Tetranychus urticae),mortality at 0.1 % (Tetranychus urticae),mortality at 0.1 % (Spodoptera littoralis),mortality at 0.005 % [1],mortality at 0.1 % [1],mortality at 0.02 ppm (Culex pipiens),"mortality at 0.01 g/m2 (Blatta orientalis; 0,01 g/m^2, Table 5)",mortality at 0.005 % (Spodoptera littoralis),"mortality at 0.001 % (Pieris brassicae; read-out: Activity (mortality class), Pieris B.)",mortality at 0.01 g/m2 (Blatta orientalis)
CCOP(=S)(OCC)Oc1nc(C2=C(Cl)CCCC2)nn1C [M 5338/89],100%,10 to 69%,100%,100%,70 to 99%,100%,100%,10 to 69%,100%,,,,,
CCOP(=S)(OCC)Oc1nc(C=C(Cl)Cl)nn1CC [M 5349/40],,100%,,,100%,,,100%,,100%,70 to 99%,100%,,
CCOP(=S)(OCC)Oc1nc(C(=O)c2ccccc2)nn1-c1ccccc1 [M 7480],10 to 69%,,,,,100%,,,,,,,,
CCOP(=S)(OCC)Oc1nc(C(C)=O)nn1-c1ccccc1 [M 7650],100%,,100%,,,100%,70 to 99%,,0 to 9%,,,,,
CCOP(=S)(OCC)Oc1nc(C(C)O)nn1-c1ccccc1 (stereo not shown) [M 7853],100%,,100%,10 to 69%,,100%,100%,,100%,,,,,
CCOP(=S)(OCC)Oc1nc(C(C)OC(C)=O)nn1-c1ccccc1 (stereo not shown) [M 8084],100%,,100%,,10 to 69%,100%,100%,,100%,,,,,
CCOP(=S)(OCC)Oc1nc(C(C)OC(=O)C=C(Cl)Cl)nn1-c1ccccc1 (stereo not shown) [M 8086],100%,,100%,,,100%,100%,,100%,,,,,
"CCOP(=S)(OCC)Oc1nc(C(Br)=C(Br)Br)nn1C [M 8089, O,O-diethyl-O-(1-methyl-3-tribromovinyl-5-triazolyl)-thiophosphate]",100%,,100%,100%,,100%,100%,,100%,,,,,
CCOP(=S)(OCC)Oc1nc(C(C)N(C)C)nn1-c1ccccc1 (stereo not shown) [M 8171],100%,,,,,70 to 99%,,,,,,,,
CCOC(=O)c1nc(OP(=S)(OCC)OCC)n(-c2ccccc2)n1 [M 8257],70 to 99%,,70 to 99%,10 to 69%,,70 to 99%,,,10 to 69%,,,,,
C=Cc1nc(OP(=S)(OCC)OCC)n(-c2ccccc2)n1 [M 8261],100%,,100%,100%,,100%,100%,,100%,,,,,
CCOP(=S)(OCC)Oc1nc(C=C(Br)Br)nn1C [M 8308],100%,,100%,100%,,100%,100%,,100%,100%,,,,
CCOP(=S)(OCC)Oc1nc(C=Cc2ccccc2)nn1C [M 8332],100%,10 to 69%,100%,100%,,100%,100%,,70 to 99%,,100%,,,
CCOP(=S)(OCC)Oc1nc(C=C(Cl)Cl)nn1C(C)C [M 8450],,100%,,,100%,,,10 to 69%,,100%,70 to 99%,100%,,
CCCCn1nc(C=C(Cl)Cl)nc1OP(=S)(OCC)OCC [M 8474],,100%,,,0 to 9%,,,100%,,100%,0 to 9%,100%,,
CCCCn1nc(C=C(Cl)Cl)nc1OP(=S)(OC)OC [M 8477],100%,,100%,100%,,100%,100%,,100%,,,10 to 69%,,
CCOP(=S)(OCC)Oc1nc(C=C(C)C)nn1C [M 8483],,,,,100%,,,70 to 99%,,10 to 69%,,10 to 69%,10 to 69%,100%
CC=Cc1nc(OP(=S)(OCC)OCC)n(CCCC)n1 [M 8497],,70 to 99%,,,10 to 69%,,,100%,,0 to 9%,10 to 69%,0 to 9%,,
CCOP(=S)(OCC)Oc1nc(C=C(Cl)Cl)nn1CC(C)C [M 8498],,100%,,,10 to 69%,,,10 to 69%,,70 to 99%,10 to 69%,100%,,
CCOP(=S)(OCC)Oc1nc(C=C(Cl)Cl)nn1Cc1ccccc1 [M 8827],100%,,,,10 to 69%,100%,,,100%,10 to 69%,,,,
C#CCn1nc(C=C(Cl)Cl)nc1OP(=S)(OCC)OCC [M 8828],100%,,100%,100%,70 to 99%,100%,,,100%,10 to 69%,,,,
CCOP(=S)(Oc1nc(C=C(Cl)Cl)nn1C)c1ccccc1 (stereo not shown) [M 9579],100%,,,,,100%,,,,,,,,
CCOP(=S)(Oc1nc(C=C(Cl)Cl)nn1C)N(C)C (stereo not shown) [M 9643],,,,,,100%,100%,,,,,,,
CCOP(=S)(OC)Oc1nc(C=C(Cl)Cl)nn1C (stereo not shown) [M 9750],100%,,,100%,100%,100%,100%,10 to 69%,100%,100%,100%,100%,,
